According to patent US20040171594A1, “Use of bis-acid(5-androsten-17-one-3beta-hydroxyl)diester for manufacture pharmaceuticals” (priority 2001, published 2004):
Marks after values point to notes of the source that are not given here.

What was measured:
[1] = tested on: osteoporosis model of rats induced by Retinoic acid; assay: Osteoporosis model of rats induced by Retinoic acid; type: in vivo, SD rats; conditions: Retinoic acid 70 mg/kg, specimen orally 30 days (dose not given), right thighbone, n=8
Description: After continuously administering specimen for 30 days, killed rats and took right thighbone of rat.
Took same part tissue of right thighbone, routinely decalcified, enveloped with olefin, and dyed with HE. Observed with ordinary optics microscope, import all imagines into computer with A/D conversion of pickup camera, via dealing with image analysis software obtained index of guide line as follows: relative bone volume, indicating percentage that bone trabecula accounted for medullary cavity, 1.25×10×4 times; average width of bone trabecula, 1.25×10×10 times; amount of cell per area in bone trabecula, gathering same area image (640×480) of bone trabecula with image analysis software, calculating amount of bone cell in corresponding area, 1.25×10×40 times; Average length of bone cell lacuna, 1.25×10×40; Average width of bone cell lacuna, 1.25×10×40. The above five indexes of static state guide-line were all observed for ten eyeshots, calculating their average value.

[2] = tested on: arrhythmia of rats induced by Aconitine; assay: Arrhythmia of rats induced by Aconitine; type: in vivo, SD rats
Method: Male SD rats, weighing (218.3±20.0) g, were anaesthetized with urethane 1.2 g/kg body weight by abdominal injection, continuously monitored by II lead electrocardiogram (ECG) by MS302 Biological Signal Record and Analysis System. After ten minutes of being administered drug or 0.5% CMC-Na through sublingual vein, rats were injected with Aconitine in external jugular vein at 2.5 μg/min speed, recorded the dose at appearance time of ventricular premature beat (VP), ventricular tachycardia (VT), ventricular fibrillation (VF) and cardiac arrest (CA), respectively. And t test was performed. […] The effect of compounds Ca Do E at 0.5 mg/kg dose were remarkably better than that of Prasterone and Arniodarone.

[3] = tested on: myocardium injury model of rats induced by ISO; assay: Myocardium injury (myocardial ischemia) model of rats induced by ISO; type: in vivo, SD rats; conditions: drug 0.76 mg/kg, n=8; for Σ ST: rats, ISO s.c.
Method: SD rats were measured ECG by chest leads before experiment, abandoned those of abnormal or arrhythmia at T wave, ST sect. […] They were divided into four groups according to Table 4, eight rats in each group. As dose of Table 4, tested compounds or 0.5% CMC-Na solution with same volume were administered through duodenum for 30 minutes, rats were anaesthetized with aether. After ECG was recorded, Isoproterenol (ISO) was administered by subcutaneous injection from the back, recorded ECG again after 30 minutes. After specimen was intragastricly granted for 24 hours and 48 hours, every group was administered simples again and recorded ECG again in terms of the methods stated above. After 72 hours, bleeding from the ophthalmic venous plexus and separated blood serum through centrifugation. Killed the rats, scissor the tip of the heart to prepare 10% myocardial tissue homogenate with 4° C. physiological saline as standby.
Measured each rat's value of ST before first administering ISO. And after first, second and third subcutaneous injection for 30 minutes, calculated mv mean value of ΣST as guide line of myocardium injury and performed t test.
The changes of MDA LDH and CK in serum were measured with agent kits.
The changes of MDA, LDH and CK in serum and myocardial tissue homogenate were measured with agent kits.

[4] = tested on: acute renal failure of mice induced by endotoxin; assay: Acute renal failure model induced by endotoxin; type: in vivo, NIH mice; conditions: drug 10 mg/kg i.p., endotoxin 0.06 g/kg, after five hours, n=10; for GSH-Px: mice kidney homogenate; for BUN / Cr: mice serum
Method: After five hours, blood of the mice was collected by removing eyes, assayed Blood Urea Nitrogen (BUN) and Creatinine (Cr) concentration of serum. One kidney of each […] was taken out and made 100 mL/L homogenate, assayed activity of Glutathione Peroxidase (GSH-Px) enzyme.

[5] = tested on: cerebral ischemia-reperfusion injury of mice; assay: Memory step-through test after cerebral ischemia-reperfusion injury; type: in vivo, NIH mice; conditions: 4.5 mg/kg intragastric once a day for 10 days, n=10
Method: After weighed, NIH mice were anaesthetized with Penbotarbital 60 mg/kg, then performed operation. Fixed at supine position, the skin in the middle of the deck was dissected about 7 mm. Separated common carotid artery of two sides of neck, surrounded with the thread of No “0”. Common carotid artery of two sides was chipped with artery clip for 2 minutes to induce cerebral ischemia. In the end of ischemia treatment, artery clip was loosed and blood perfusion was restored, rest for five minutes, repeated twice as that. After blocking blood flow of carotid, sutured incision. Recorded trail bloodletting, bloodletting quantity was no more than 10% of total blood quantity. After operation, […] were administered with proper physiological saline through intraperitoneal injection in order to supple capacity of blood. After pseudo operation group was anaesthetized, carotid of two sides was separated but blood flow was not blocked, without being bloodletting too.
In experiment appearance of body temperature lowering and righting reflex disappearing was as positive guide-line of ischemia, discarding those without typical guide line of ischemia. In the procedure of ischemia or after operation, some of animals would be dead. […] According to the dose of Table 7, animals were administered with medicine by intragastric intubation once a day, and continue administered drug for 10 days. After 10 days, memory test was performed.

[6] = tested on: thymus and spleen of mice; assay: Indexes of thymus and spleen of mice injected with cyclophosphamide; type: in vivo, NIH mice; conditions: cyclophosphamide 60 mg/kg i.p., drug 10 mg/kg intragastric for 30 days, n=10
Method: Chose 90 healthy NIH mice, weighing (18˜22)g, equal amount of male and female. Every mouse was injected with cyclophos phamide (60 mg/kg, intraperitoneally). […] Administered specimen through intragastric intubation in terms of the dose in Table 8. Continuously administered orally specimen for 30 days, all mice fasted on the 30th day, but were supplied with water. On the 31th day, mice of every group were killed. Weighed their body, thymus and spleen, calculated index of thymus and spleen, compared the difference among each group.

[7] = tested on: arrhythmia of guinea pigs induced by Ouabain; assay: Arrhythmia of guinea pigs induced by Ouabain; type: in vivo; conditions: n=8
Method: Chose 40 male guinea pigs, weighing (288.8±38.3) g, randomly divided into six groups, anaesthetized with urethane 1.2 g/kg by abdominal injection. Ten minutes after administered drug or 0.5% CMC-Na, the guinea pigs were injected Ouabain into external jugular vein at 3 μg/min speed, recorded ECG respectively, measured the dose at appearance time of VP, VT, VF and CA, and performed t test.

[8] = rats, drug 0.5 mg/kg sublingual vein 10 min before Aconitine 2.5 μg/min, n=10
[9] = myocardial tissue homogenate of rats with ISO myocardium injury
[10] = serum of rats with ISO myocardium injury, after 72 hours
[11] = drug 4.5 mg/kg 10 min before Ouabain 3 μg/min
[12] = drug 2.5 mg/kg 10 min before Ouabain 3 μg/min

Compound	Amount of cell per area in bone trabecula [1]	Average width of bone trabecula [1] [μm]	Activity of CK [3, 9] [U/L]	Activity of LDH [3, 9] [U/L]	MDA [3, 9] [nmol/g]	Σ ST ([3]; 30 min) [mv]	Σ ST ([3]; 24 h) [mv]	Σ ST ([3]; 48 h) [mv]	Σ ST ([3]; 72 h) [mv]	Activity of CK [3, 10] [U/L]	Activity of LDH [3, 10] [U/L]	MDA [3, 10] [nmol/mL]	GSH-Px [4] [nU · L^−1]	BUN [4]	Latency of dark cabin, Memory [5] [s]	Latency of dark cabin, Study [5] [s]	Number of error [5] [n]	Relative bone volume [1] [%]	Dose of Aconitine required to induce CA ([2]; {}) [mg/kg]	Dose of Aconitine required to induce VF ([2]; {}) [mg/kg]	further results
C[C@]12CC[C@H](OC(=O)CC(=O)O[C@H]3CC[C@@]4(C)C(=CC[C@@H]5[C@@H]4CC[C@]4(C)C(=O)CC[C@@H]54)C3)CC1=CC[C@@H]1[C@@H]2CC[C@]2(C)C(=O)CC[C@@H]12 [Compound C, malonic acid-(5-androsten-17-one-3β-ol)-diester]	19.50 ± 5.54	72.69 ± 10.38	186.55 ± 26.25	201.33 ± 25.24	121.67 ± 15.24	0.64 ± 0.21	0.52 ± 0.11	0.50 ± 0.14	0.52 ± 0.12	262.50 ± 35.41	270.13 ± 27.46	28.29 ± 6.56	29.8 ± 11.6	387.0 ± 40.2*** 10 mg · L^−1	58.1 ± 16.2	24.4 ± 17.3	2.5 ± 1.5	–	–	–	Dose of Aconitine required to induce CA [2, 8]: 0.1865 ± 0.0317 mg/kg; Dose of Aconitine required to induce VF [2, 8]: 0.1528 ± 0.0393 mg/kg; Dose of Aconitine required to induce VP [2, 8]: 0.098 ± 0.0291 mg/kg; Dose of Aconitine required to induce VT [2, 8]: 0.1189 ± 0.0353 mg/kg
CC12CCC3C(CC=C4CC(OC(=O)CCC(=O)OC5CCC6(C)C(=CCC7C8CCC(=O)C8(C)CCC76)C5)CCC43C)C1CCC2=O (stereo not drawn) [Compound D, succinic acid-(5-androsten-17-one-3β-ol)-diester]	20.70 ± 5.27	70.76 ± 8.56	270.41 ± 34.31	292.27 ± 29.44	78.43 ± 7.51	0.42 ± 0.20	0.47 ± 0.13	0.42 ± 0.08	0.40 ± 0.10	229.27 ± 31.32	218.55 ± 37.35	18.15 ± 4.52	38.4 ± 15.0	295.5 ± 36.0*** 10 mg · L^−1	67.4 ± 19.7	37.3 ± 15.1	1.2 ± 1.0	41.55 ± 4.38	0.204 ± 0.028	0.1864 ± 0.0302	Dose of Aconitine required to induce VP ([2]; {}): 0.1224 ± 0.0205 mg/kg; Dose of Aconitine required to induce VT ([2]; {}): 0.1378 ± 0.0244 mg/kg; Index of spleen [6]: 103.47 ± 13.40 mg/10 g body weight; Index of thymus [6]: 25.59 ± 3.70 mg/10 g body weight; Cr [4]: 29.31 ± 7.94*** 10 mg · L^−1
C[C@]12CC[C@H](O)CC1=CC[C@@H]1[C@@H]2CC[C@]2(C)C(=O)CC[C@@H]12 [Parsterone, Prasterone, reference compound]	–	–	–	–	–	–	–	–	–	–	–	–	–	–	–	–	–	–	0.1645 ± 0.0271	0.1327 ± 0.0244	Dose of Aconitine required to induce VP ([2]; {}): 0.0935 ± 0.019 mg/kg; Dose of Aconitine required to induce VT ([2]; {}): 0.11 ± 0.0161 mg/kg; Dose of Oua at appearance of CA [7, 11]: 0.1955 ± 0.033 mg/kg; Dose of Oua at appearance of VF [7, 11]: 0.1654 ± 0.0264 mg/kg; Dose of Oua at appearance of VP [7, 11]: 0.0893 ± 0.0155 mg/kg; Dose of Oua at appearance of VT [7, 11]: 0.1316 ± 0.0246 mg/kg
C=C1/C(=C\C=C2/CCC[C@]3(C)[C@@H]([C@H](C)CCCC(C)(C)O)CC[C@@H]23)C[C@@H](O)C[C@@H]1O [Rocaltrol, reference compound]	19.27 ± 3.89	67.16 ± 13.11	–	–	–	–	–	–	–	–	–	–	–	–	–	–	–	36.72 ± 7.82	–	–	–
propanediol-disulphonic acid-(5-androsten-17-one-3β-ol)-diester [Compound H]	35.69 ± 3.70	60.84 ± 4.81	230.15 ± 53.46	–	105.52 ± 14.64	0.53 ± 0.11	0.50 ± 0.10	0.52 ± 0.04	0.51 ± 0.12	261.24 ± 24.27	253.24 ± 31.55	21.17 ± 3.36	35.6 ± 10.7	366.0 ± 30.2*** 10 mg · L^−1	56.0 ± 17.2	26.2 ± 15.2	3.0 ± 1.5	–	–	–	Dose of Oua at appearance of CA [7, 12]: 0.2232 ± 0.0307 mg/kg; Dose of Oua at appearance of VF [7, 12]: 0.1981 ± 0.0415 mg/kg; Dose of Oua at appearance of VP [7, 12]: 0.116 ± 0.037 mg/kg; Dose of Oua at appearance of VT [7, 12]: 0.1402 ± 0.0356 mg/kg; Cr [4]: 35.78 ± 7.26*** 10 mg · L^−1
